# Assay results: PMC6335420, “The cell cycle regulator GpsB functions as cytosolic adaptor for multiple cell wall enzymes” (Nature Communications, 2019)
# Non-standard residues stand in square brackets, D forms with d. Residues, ends and D or L forms follow the SMILES beside them. No end group written: not given here. *: point of attachment. Fluorescein(5-Mal) = O=C1OC2(c3ccc(O)cc3Oc3cc(O)ccc32)c2ccc(N3C(=O)CC(*)C3=O)cc21; 5FAM = O=C1OC2(c3ccc(O)cc3Oc3cc(O)ccc32)c2ccc(C(=O)*)cc21; Nle = CCCC[C@H](N)C(=O)O
# T1: BsGpsB_(1-68) (B. subtilis, UniProt P0CI74 1-68)
# T1 construct: GpsB, Bacillus subtilis, residues 1-68; also called N-terminal domain of BsGpsB; source: E. coli, purified (Ni-NTA, thrombin, size exclusion)
# T1 sequence (looked up): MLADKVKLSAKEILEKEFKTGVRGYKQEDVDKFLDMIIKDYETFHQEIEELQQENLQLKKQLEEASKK
# B1: BsPBP1_(1-32)^Arg28Ala, TAMRA-labelled at position 16 (peptide, UniProt P39793 1-32, looked up)
# peptide: MSDQFNSREARRKANC(TAMRA‑maleimide)KSSPSPKKGKKAKKGG
# notes: PBP1, Bacillus subtilis, residues 1-32; source: E. coli, His-tagged MBP fusion purified (Ni-NTA), labelled, TEV-cleaved, ultrafiltration
# B2: BsYrrS_(1-18), fluorescein-labelled (peptide, UniProt O32031 1-18, looked up)
# peptide: MSNNQSRYENRDKRRKAN
# modifications: also: fluorescein label, position not given here
# notes: YrrS, Bacillus subtilis, residues 1-18; also called entire cytoplasmic mini-domain of BsYrrS
# B3: BsGpsB1-68: N-terminal domain of B. subtilis GpsB (protein)
# chain: T1 sequence (looked up)
# modifications: left off: His6, N-terminal, cleaved
# notes: N-terminal domain of B. subtilis GpsB
# Columns and labels:
# BsGpsB1-68Tyr25Phe = molecular target: T2, BsGpsB1-68Tyr25Phe (Bacillus subtilis, UniProt P0CI74, Y25F); assay: Fluorescence polarisation binding to BsGpsB1-68Tyr25Phe; conditions: FP, BsGpsB Tyr25Phe relative to wild-type BsGpsB1-68
# T2 construct: correspond to BsGpsB1-68^Asp31Ala and BsGpsB1-68^Tyr25Phe mutants, respectively; His6 (N, cleaved yes); made in house; host or cells: E. coli BL21(DE3)
# Text: (§1) 75 the BsGpsB5-64:BsPBP11-17 complex.
# BsGpsB1-68Asp31Ala = molecular target: T3, BsGpsB1-68Asp31Ala (Bacillus subtilis, UniProt P0CI74, D31A); assay: Fluorescence polarisation binding to BsGpsB1-68Asp31Ala; conditions: FP, BsGpsB Asp31Ala relative to wild-type BsGpsB1-68
# T3 construct: Glu17Ala, Asp31Ala and Asp35Ala mutations were introduced to the BsGpsB1-68 expression construct plasmid; His6 (N, cleaved yes); made in house; host or cells: E. coli BL21(DE3)
# Text: as §1
# BsGpsB1-68Lys32Glu = molecular target: T4, BsGpsB1-68Lys32Glu (Bacillus subtilis, UniProt P0CI74, K32E); assay: Fluorescence polarisation binding to BsGpsB1-68Lys32Glu; conditions: FP, relative to wild-type LmPBPA1 peptide
# T4 construct: His6 (N, cleaved yes); made in house; host or cells: E. coli BL21(DE3)
# Text: as §1
# LmGpsB = assay: BACTH (bacterial two-hybrid) interaction with LmGpsB; type: cell-based, Listeria monocytogenes; conditions: E. coli BTH101, 30 °C, photographed after 24 and 48 h; LmPBPA1 variants as T25-PBPA1ΔGT-TP
# Text: The BACTH system[63] was used for analysis of protein:protein interactions. First, LmGpsB was screened against LmPBPA1 (lmo1892) variants to identify residues in LmPBPA1 that are important for binding LmGpsB. To facilitate screening, we used a T25 fragment of Bordetella pertussis adenylate cyclase that had been fused to the N-terminal 91 amino acids of LmPBPA1 to create a T25-LmPBPA1 fusion containing the N-terminal cytoplasmic mini-domain and the transmembrane helix, but lacking lacking the extracellular glycosyltransferase and transpeptidase domains (T25-PBPA1ΔGT-TP) in plasmid pSH437[21]. LmPBPA1 residues that corresponded to the BsGpsB binding motif of BsPBP1 (Thr7, Arg8, Tyr11, Arg12) and additional positively charged amino acids (Lys14, Lys20, Lys21, Lys22, Lys25, Arg26, Lys28 and Arg29) in T25-PBP A1ΔGT-TP were replaced with alanine prior to screening against GpsB-T18. The pSH437 plasmid was mutated by Quikchange mutagenesis using the primer pairs SHW744/SHW754 (T7A, pSH485), SHW746/SHW747 (R8A, pSH486), SHW755/SHW756 (Y11A, pSH487), SHW748/SHW749 (R12A, pSH488), SHW757/SHW758 (K14A, pSH489), SHW759/SHW760 (K20A, pSH490), SHW761/SHW762 (K21A, pSH491), SHW763/SHW764 (K22A, pSH492), SHW765/SHW766 (K25A, pSH493), SHW767/SHW768 (R26A, pSH494), SHW769/SHW770 (K28A, pSH495) and SHW771/SHW772 (R29A, pSH496).
# pJR164 and pJR169 were constructed by cloning sepF (primers JR334/JR335 and XbaI/KpnI digestion) into pKT25 and p25-N, respectively. pJR165 and pJR170 were generated by cloning ezrA into pKT25 and p25-N, respectively, using primers JR339/JR340 and XbaI/KpnI for digestion. pJR172 and pJR174 were obtained by cloning zapA into pKT25 and p25-N, respectively, using primers JR337/JR338 and PstI/KpnI. pJR213 was constructed by amplification of divIB with primers JR353/JR354 and cloning into pKT25 using XbaI/KpnI. pJR214 was generated by PCR amplification of divIC with primers JR355/JR356 and cloning into pKT25 using XbaI/KpnI. mreBH was amplified by PCR using oligonucleotides JR368/JR369 and cloned into pKT25 and p25-N using XbaI/KpnI, resulting in pJR233 and pJR236, respectively. pJR242 and pJR243 were obtained by cloning mreC into pKT25 and p25-N, respectively, using primers JR364/JR365 and PstI/KpnI digestion. pbpA2 was cloned into pKT25 using oligonucleotides SHW153/SHW154 and XbaI/KpnI to create pJR250. pbpB1 was amplified with primers SHW157/SHW158 and cloned with SmaI/EcoRI into pKT25, yielding pSH236. pbpB2 was amplified with primers SHW155/SHW156 and cloned into pKT25 after PstI/BamHI digestion, yielding plasmid pSH235. pbpB3 was amplified using primers SHW159/160 and cloned by PstI/BamHI digestion into pKT25, resulting in pSH237. Finally, pSH484 was obtained by removing the N-terminal domain from gpsB present on plasmid pSH226 in a PCR with the primer pair SHW752/SHW753.
# Plasmids encoding the respective genes fused to the N- or C-termini of the T18- or the T25-fragment of the Bordetella pertussis adenylate cyclase were co-transformed into E. coli BTH101. Transformants were selected on LB agar plates containing ampicillin (100 µg^−1mL^−1), kanamycin (50 µg^−1mL^−1), X-Gal (40 µg^−1mL^−1) and IPTG (0.1 mM) and photographs were taken after 24 and 48h growth at 30 °C. The BACTH experiments in Fig. 2b and Supplementary Figure 3C, D were repeated at least twice.
# [1] = molecular target: Fluorescein-LmPBPA11-20 wildtype (L. monocytogenes EGD-e); assay: fluorescence polarisation
# BsGpsB_(1-68) = molecular target: T1, BsGpsB_(1-68); assay: fluorescence polarisation; GpsB protein titrated into fluorescently labelled peptide; 10 mM Tris.HCl pH 8.0, 250 mM NaCl, 0.1% reduced Triton X-100; fit to a 1:1 interaction model; conditions: both partners purified
# full-length BsPBP1 = assay: SPR binding to immobilised full-length BsPBP1; parameters: species or system Bacillus subtilis; conditions: SPR, PBP1-coated chip; full-length GpsB data fit 1:1 only over limited concentration range (avidity), BsGpsB1-68 supports 1:1; peer review file; read-out: affinity / Kd by SPR
# Text: BsPBP1 and BsPBP1_17-914 were immobilised on the surface of a CM5 chip (GE Healthcare). For the BsPBP1/YrrSΔ13-16 titration 800 RUs of BsPBP1 were immobilised on the chip surface; for the BsPBP1/BsGpsB titration 1200 RUs of BsPBP1 were immobilised. YrrSΔ13-16, which lacks residues 13–16 in the cytoplasmic domain, was used in these experiments to minimise non-specific interactions with the chip matrix; binding of YrrSΔ13-16 to the reference surface was negligible and the deletion of residues 13–16 leaves the GpsB-binding motif intact. The YrrSΔ13-16 titration was carried out in single-cycle mode, without regenerating the surface between successive injections of protein, because harsh reagents were necessary for full surface regeneration.
# T4 sequence (P0CI74 1-68 K32E): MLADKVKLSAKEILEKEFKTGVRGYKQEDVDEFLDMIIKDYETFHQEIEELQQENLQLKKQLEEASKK
# T2 sequence (P0CI74 1-68 Y25F): as the sequence (P0CI74 1-68 K32E) above, with Y25F, E32K counted along it
# T3 sequence (P0CI74 1-68 D31A): as the sequence (P0CI74 1-68 K32E) above, with D31A, E32K counted along it
molecule,measurement,setting,value
CSCC[C@H](NC(=O)[C@H](CO)NC(=O)CN)C(=O)NCC(=O)N[C@@H](CC(N)=O)C(=O)N[C@@H](CC(N)=O)C(=O)N[C@@H](CCC(N)=O)C(=O)N[C@@H](CO)C(=O)N[C@@H](CCCNC(=N)N)C(=O)N[C@@H](Cc1ccc(O)cc1)C(=O)N[C@@H](CCC(=O)O)C(=O)N[C@@H](CC(N)=O)C(=O)N[C@@H](CCCNC(=N)N)C(=O)N[C@@H](CC(=O)O)C(=O)N[C@@H](CCCCN)C(=O)N[C@@H](CCCNC(=N)N)C(=O)N[C@@H](CCCNC(=N)N)C(=O)N[C@@H](CCCCN)C(=O)N[C@@H](C)C(=O)N[C@@H](CC(N)=O)C(=O)N[C@@H](CSC1CC(=O)N(c2ccc3c(c2)C(=O)OC32c3ccc(O)cc3Oc3cc(O)ccc32)C1=O)C(=O)NCC(=O)O (stereo partly drawn) [Fluoroescein-BsYrrS1-18] (H-GSMGNNQSRYENRDKRRKANC(Fluorescein(5-Mal))G-OH; N-terminus and C-terminus assumed),reduction in affinity on GpsB mutation,BsGpsB1-68Tyr25Phe,7 fold
same,reduction in affinity on GpsB mutation,BsGpsB1-68Asp31Ala,7 fold
CSCC[C@H](NC(=O)[C@H](CO)NC(=O)CN)C(=O)N[C@@H](C)C(=O)N[C@@H](CC(=O)O)C(=O)N[C@@H](CCCCN)C(=O)N1CCC[C@H]1C(=O)N[C@@H](CCC(N)=O)C(=O)N[C@H](C(=O)N[C@@H](C)C(=O)N[C@@H](CO)C(=O)N[C@@H](CCC(N)=O)C(=O)N[C@@H](Cc1ccc(O)cc1)C(=O)N[C@@H](CCCNC(=N)N)C(=O)N[C@@H](CC(N)=O)C(=O)N[C@@H](CCCCN)C(=O)N[C@@H](CCC(N)=O)C(=O)N[C@@H](CO)C(=O)NCC(=O)NCC(=O)N[C@@H](CSC1CC(=O)N(c2ccc3c(c2)C(=O)OC32c3ccc(O)cc3Oc3cc(O)ccc32)C1=O)C(=O)N[C@@H](CCCCN)C(=O)O)[C@@H](C)O (stereo partly drawn) [Fluorescein-LmPBPA11-20 Arg8Ala] (H-GSMADKPQTASQYRNKQSGGC(Fluorescein(5-Mal))K-OH; N-terminus and C-terminus assumed),reduction in affinity for BsGpsB1-68Lys32Glu,BsGpsB1-68Lys32Glu,> 15 fold
same,BACTH interaction with LmGpsB,LmGpsB,significant negative impact
CCCC[C@H](NC(=O)c1ccc2c(c1)C(=O)OC21c2ccc(O)cc2Oc2cc(O)ccc21)C(=O)N[C@H](C(=O)N[C@@H](CC(N)=O)C(=O)N[C@@H](CCCC)C(=O)N[C@@H](CO)C(=O)N[C@@H](CCCNC(=N)N)C(=O)N[C@H](C(=O)N[C@@H](CCC(=O)O)C(=O)N[C@@H](CCCNC(=N)N)C(=O)N[C@@H](CCCNC(=N)N)C(=O)N[C@@H](CCCCN)C(=O)N[C@@H](C)C(=O)N[C@@H](CCC(N)=O)C(=O)N[C@@H](CC(N)=O)C(=O)N[C@@H](CC(C)C)C(=O)N[C@@H](Cc1ccc(O)cc1)C(=O)N[C@@H](CCC(=O)O)C(=O)N[C@@H](CC(=O)O)C(=O)N[C@@H](CCC(N)=O)C(=O)N[C@@H](CC(N)=O)C(=O)N[C@@H](C)C(=O)O)C(C)C)[C@@H](C)O [Fluoroescein-BsYpbE1-21] (5FAM-[Nle]TN[Nle]SRVERRKAQNLYEDQNA-OH; N-terminus and C-terminus assumed),reduction in affinity on GpsB mutation,BsGpsB1-68Tyr25Phe,~ 40 fold
same,reduction in affinity on GpsB mutation,BsGpsB1-68Asp31Ala,~ 40 fold
CSCC[C@H](NC(=O)[C@H](CO)NC(=O)CN)C(=O)N[C@@H](C)C(=O)N[C@@H](CC(=O)O)C(=O)N[C@@H](CCCCN)C(=O)N1CCC[C@H]1C(=O)N[C@@H](CCC(N)=O)C(=O)N[C@H](C(=O)N[C@@H](CCCNC(=N)N)C(=O)N[C@@H](CO)C(=O)N[C@@H](CCC(N)=O)C(=O)N[C@@H](Cc1ccc(O)cc1)C(=O)N[C@@H](C)C(=O)N[C@@H](CC(N)=O)C(=O)N[C@@H](CCCCN)C(=O)N[C@@H](CCC(N)=O)C(=O)N[C@@H](CO)C(=O)NCC(=O)NCC(=O)N[C@@H](CSC1CC(=O)N(c2ccc3c(c2)C(=O)OC32c3ccc(O)cc3Oc3cc(O)ccc32)C1=O)C(=O)N[C@@H](CCCCN)C(=O)O)[C@@H](C)O (stereo partly drawn) [Fluorescein-LmPBPA11-20 Arg12Ala] (H-GSMADKPQTRSQYANKQSGGC(Fluorescein(5-Mal))K-OH; N-terminus and C-terminus assumed),reduction in affinity for BsGpsB1-68Lys32Glu,BsGpsB1-68Lys32Glu,~ 4 fold
same,BACTH interaction with LmGpsB,LmGpsB,significant negative impact
LmGpsB1-73 (from UniProt Q8Y614 1-73) (domain or fragment),Kd,[1],200 µM
B1,binding result,BsGpsB_(1-68),binds
B2,Kd,BsGpsB_(1-68),430 µM
B3,Kd,full-length BsPBP1,40 µM
